Assay [1] deals with T1, Human RAD51 protein binding to ssDNA (Homo sapiens, UniProt Q06609).
T1 sequence (Q06609 1-339): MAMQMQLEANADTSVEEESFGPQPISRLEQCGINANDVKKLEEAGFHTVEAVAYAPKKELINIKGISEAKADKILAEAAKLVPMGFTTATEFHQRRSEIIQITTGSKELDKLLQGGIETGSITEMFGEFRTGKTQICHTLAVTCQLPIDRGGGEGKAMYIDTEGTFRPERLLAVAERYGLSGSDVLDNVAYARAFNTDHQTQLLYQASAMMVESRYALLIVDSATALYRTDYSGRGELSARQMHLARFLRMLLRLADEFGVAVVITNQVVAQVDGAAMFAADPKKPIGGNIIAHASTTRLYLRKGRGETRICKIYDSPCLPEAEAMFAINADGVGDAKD
Briefly: RAD51-DNA binding assay. To be noted: gel shift, 0.5 μM RAD51. In general terms: A gel shift assay detects complexes by their altered migration in electrophoresis.

Assay [2] deals with relaxed covalently-closed circular dsDNA plasmid (pRS306). Briefly: dsDNA intercalation assay. To be noted: 10 μM; DMSO vehicle defined as 0, saturation of the endpoint = 1. Type of assay: binding.

This note sets out measurements from publication PMC6525040 (ChemMedChem, 2019).

On to `O=C1C(Cl)=C(N2CCOCC2)C(=O)N1c1ccc(Cl)c(Cl)c1` [RI-1], for which the “effect on RAD51 binding to ssDNA / RAD51-ssDNA nucleoprotein filaments (in words)” value in assay [1] is given as “inhibited”.
`CCN(CC)CCCC(C)Nc1ccnc2cc(Cl)ccc12` (centres unmarked) [chloroquine] had an intercalation score in assay [2] of 1.
